Measured values published in patent US6004955A, “Cyclic carbamates and isoxazolidines as IIb/IIIa antagonists” (DuPont Pharmaceuticals Company, priority 1998, dated 1999).

Test system: platelet aggregation (using platelet rich plasma (PRP))
Assay: Platelet Aggregation Assay (without esterase)
Type: cell-based
Conditions: human platelet rich plasma
Experimental: Platelet Aggregation Assay: Venous blood was obtained from the arm of a healthy human donor who was drug-free and aspirin-free for at least two weeks prior to blood collection. Blood was collected into 10 mL citrated Vacutainer tubes. The blood was centrifuged for 15 minutes at 150×g at room temperature, and platelet-rich plasma (PRP) was removed. The remaining blood was centrifuged for 15 minutes at 1500×g at room temperature, and platelet-poor plasma (PPP) was removed. Samples were assayed on a aggregometer (PAP-4 Platelet Aggregation Profiler), using PPP as the blank (100% transmittance). 200 μL of PRP was added to each micro test tube, and transmittance was set to 0%. 20 μL of various agonists (ADP, collagen, arachidonate, epinephrine, thrombin) were added to each tube, and the aggregation profiles were plotted (% transmittance versus time). The results are expressed as % inhibition of agonist-inducedplatelet aggregation. For the IC50 evaluation, the test compounds were added at various concentrations prior to the activation of the platelets.
Table A below sets forth the antiplatelet activity of representative compounds of the present invention. The indicated compounds were tested for their ability to inhibit platelet aggregation (using platelet rich plasma (PRP)). The IC50 value (the concentration of antagonist which inhibits platelet aggregation by 50% relative to a control lacking the antagonist) is shown. In Table 5 the IC50 values are expressed as: +++=IC50 of <10 μM (μM=micromolar).

`Cc1cccc(S(=O)(=O)N[C@@H](CNC(=O)CC2CC(c3ccc(C(=N)N)cc3)N(Cc3ccccc3)C(=O)O2)C(=O)O)c1` (stereo partly drawn) [Example 322, Cis-3-[[[4-[4-(aminoiminomethyl)phenyl]tetrahydro-3-benzyl-2-oxo-2H-1,3-oxazin-6-yl]acetyl]amino]-N-[(3-methylphenyl)sulfonyl]-L-alanine monohydrogenchloride] was tested, and the IC50 was less than 10 µM.

With `Cc1ccccc1S(=O)(=O)N[C@@H](CNC(=O)CC1CC(c2ccc(C(=N)N)cc2)N(C)C(=O)O1)C(=O)O` (stereo partly drawn) [Example 328, Cis-3-[[[4-[4-(aminoiminomethyl)phenyl]tetrahydro-3-methyl-2-oxo-2H-1,3-oxazin-6-yl]acetyl]amino]-N-[(2-methylphenyl)sulfonyl]-L-alanine monohydrogenchloride] the IC50 was less than 10 µM.

Work on `Cc1noc(C)c1S(=O)(=O)N[C@@H](CNC(=O)CC1CC(c2ccc(C(=N)N)cc2)N(C)C(=O)O1)C(=O)O` (stereo partly drawn) [Example 336, Cis-3-[[[4-[4-(aminoiminomethyl)phenyl]tetrahydro-3-methyl-2-oxo-2H-1,3-oxazin-6-yl]acetyl]amino]-N-[(3,5-dimethylisoxazol-4-yl)sulfonyl]-L-alanine monohydrogenchloride] yielded an IC50 of less than 10 µM.

In the case of `CCCCOC(=O)N[C@@H](CNC(=O)CC1CC(c2ccc(C(=N)N)cc2)N(C)C(=O)O1)C(=O)O` (stereo partly drawn) [Example 356, Cis-3-[[[4-[4-(aminoiminomethyl)phenyl]tetrahydro-3-methyl-2-oxo-2H-1,3-oxazin-6-yl]acetyl]amino]-N-(n-butyloxycarbonyl)-L-alanine monohydrogenchloride], the IC50 is reported as less than 10 µM.
